Test results from publication PMC4539082 (Drug Design, Development and Therapy, 2015).

Key:
[1] = Half-life in rat; format: in vivo
[2] = Half-life in mice; settings: mouse, in vivo
[3] = Half-life in dog; format: in vivo
[4] = patients; cited from earlier work
[5] = test system: PDX of melanoma; settings: cited from earlier work
[6] = test system: p3TP Lux mink lung cells; assay: TGF-β-dependent luciferase assay in mink lung cells; format: cell-based; settings: read-out: p3TP lux, IC50; Mean values ± SEM for a minimum of three determinations (n); data on file
[7] = test system: NIH3T3; assay: Growth inhibition in mouse fibroblasts; format: cell-based; settings: read-out: NIH3T3, IC50; Mean values ± SEM for a minimum of three determinations (n); data on file
[8] = molecular target: p38MAPK (Homo sapiens, UniProt Q16539); assay: p38MAPK inhibition, single-point determination; format: biochemical; settings: read-out: p38MAPK, IC50, data on file
Chain of p38MAPK (Q16539 whole entry): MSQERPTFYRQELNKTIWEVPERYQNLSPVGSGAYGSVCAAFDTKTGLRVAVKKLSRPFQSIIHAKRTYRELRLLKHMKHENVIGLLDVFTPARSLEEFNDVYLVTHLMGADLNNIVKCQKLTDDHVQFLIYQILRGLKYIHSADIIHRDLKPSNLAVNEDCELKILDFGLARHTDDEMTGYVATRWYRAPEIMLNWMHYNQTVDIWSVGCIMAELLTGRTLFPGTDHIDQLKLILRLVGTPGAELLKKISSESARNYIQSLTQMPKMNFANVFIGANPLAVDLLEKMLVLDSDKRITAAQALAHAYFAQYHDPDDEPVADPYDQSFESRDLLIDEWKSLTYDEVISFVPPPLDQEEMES

[9] = test system: cell lines that had no T790M mutation; settings: cell lines without T790M mutation; cited from earlier work
[10] = molecular target: T1, TGF-βR-I kinase domain (Homo sapiens, UniProt P36897, T204D); assay: Ki of Eli Lilly TGF-β SMIs; format: biochemical; settings: data on file, Eli Lilly and Company
T1 sequence (P36897 148-503 T204D limits assumed): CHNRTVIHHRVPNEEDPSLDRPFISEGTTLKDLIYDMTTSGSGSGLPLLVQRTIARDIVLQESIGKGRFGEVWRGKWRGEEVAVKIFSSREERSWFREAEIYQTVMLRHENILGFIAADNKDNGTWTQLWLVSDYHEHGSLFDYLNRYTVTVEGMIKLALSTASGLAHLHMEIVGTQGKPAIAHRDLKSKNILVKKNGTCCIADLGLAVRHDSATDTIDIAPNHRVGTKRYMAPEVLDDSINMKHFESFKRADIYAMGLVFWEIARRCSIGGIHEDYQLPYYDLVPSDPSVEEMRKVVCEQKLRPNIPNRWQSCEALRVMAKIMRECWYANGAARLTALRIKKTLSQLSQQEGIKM

[11] = test system: NSCLC cell lines; settings: cited from earlier work
[12] = test system: MDAPCa2b and PC-3; settings: cited from earlier work
[13] = test system: lung fibrosis; settings: administration before, during, and after radiation treatment; cited from earlier work
[14] = test system: pSMAD2 in glioblastoma cell lines; settings: lomustine by itself; cited from earlier work
[15] = one patient with malignant melanoma; doses up to 15 mg/kg; cited from earlier work
[16] = 13 patients, 3 mg/kg every 21 days; cited from earlier work

With `Cc1cccc(-c2nn3c(c2-c2ccnc4ccc(C(N)=O)cc24)CCC3)n1` [Galunisertib (LY2157299)] the half-life ([1]; rat, in vivo) was 31.8 min, the half-life [2] was 18 min and the half-life ([3]; dog, in vivo) was 136 min. The “drug-related Grade 3/4 toxicities” value [4] was < 5%, the pSMAD2 ([5]; PDX of melanoma) was “inhibited” and the growth inhibitory effect ([5]; standard tumor colony assay, melanoma PDX) was “no growth inhibitory effect”.

Work on `c1ccc(-c2[nH]ncc2-c2ccnc3ccccc23)nc1` [LY364947] yielded an IC50 [6] of 0.047 ± 0.016 µM, an IC50 [7] of 0.089 ± 0.01 µM and an IC50 [8] of 0.74 µM. For the same molecule, the EGFR resistance [9] was “able to overcome the EGFR resistance”.

With `Cc1cccc(-c2nn3c(c2-c2ccc(F)cc2)CCC3)n1` [LY580276] the Ki [10] was 0.037 µM, the IC50 [6] was 0.096 ± 0.016 µM and the IC50 [7] was 0.339 ± 0.349 µM. For the same molecule, the IC50 [8] was > 20 µM.

`c1ccc(-c2nn3c(c2-c2ccnc4cc(OCCN5CCOCC5)ccc24)CCC3)nc1` [LY2109761] showed an IC50 [6] of 0.18 ± 0.093 µM, an IC50 [7] of 0.21 ± 0.17 µM and a Half-life mean ([1]; Rat, data on file) of 108 min. The Half-life mean ([3]; Dog, data on file) was 60 to 120 min, the metastatic spread [11] was “reduced metastatic spread” and the “antitumor activity, bone metastasis” value [12] was “inhibiting bone metastasis”. For the same molecule, the lung fibrosis [13] was “inhibited lung fibrosis”.

For `O=NN(CCCl)C(=O)NC1CCCCC1` [lomustine], the pSMAD2 [14] is listed as “reduced pSMAD2”.

In the case of “fresolimumab: pan-TGF-β ligand monoclonal antibody”, the “duration of partial response” value [15] is given as 44.4 weeks and the radiographic responses [16] is given as “None of the patients had radiographic responses”.
